≈ marks a conversion by molar mass, not a printed value. Where two headings read alike, the source gives them in different places.
How the values were obtained:
[1] = tested on: Streptococcus pyogenes C203; assay: ED50 in mice experimentally infected with S. pyogenes C203; type: in vivo; conditions: two doses given 1 and 4 hours post-infection, dose protecting 50% of the test animals
Description: The formula 1 compounds have shown in vivo antimicrobial activity against experimentally-induced infections in laboratory animals. When two doses of test compound were administered to mice experimentally infected with S. pyogenes C203, the activity observed was measured as an ED₅₀ value [effective dose in mg/kg to protect 50% of the test animals: see Warren Wick, et 5 al., J. Bacteriol. 81, 233-235 (1961)].

[2] = tested on: Mycoplasma gallisepticum 36H; assay: MIC, conventional broth-dilution microtiter test; type: cell-based; conditions: Mycoplasmoides gallisepticum
Description: (§1) The MIC's in Table II were determined by standard agar-dilution assays. The MIC's in Table III were obtained using conventional broth-dilution microtiter tests.

[3] = tested on: Mycoplasma hyopneumoniae S5972; assay: MIC, conventional broth-dilution microtiter test; type: cell-based; conditions: Mesomycoplasma hyopneumoniae
Description: as §1

[4] = tested on: Pasteurella multocida 22A; assay: MIC, conventional broth-dilution microtiter test; type: cell-based
Description: as §1

[5] = tested on: Bordetella bronchiseptica; assay: MIC, conventional broth-dilution microtiter test; type: cell-based
Description: as §1

[6] = tested on: Mycoplasma gallisepticum 15E; assay: MIC, conventional broth-dilution microtiter test; type: cell-based; conditions: Mycoplasmoides gallisepticum
Description: as §1

Staphylococcus aureus = assay: MIC, conventional broth-dilution microtiter test; type: cell-based
Description: as §1

[7] = tested on: Pasteurella multocida 68C; assay: MIC, conventional broth-dilution microtiter test; type: cell-based
Description: as §1

[8] = tested on: Pasteurella hemolytica 41D; assay: MIC, conventional broth-dilution microtiter test; type: cell-based
Description: as §1

[9] = tested on: Pasteurella multocida 17E; assay: MIC, conventional broth-dilution microtiter test; type: cell-based; conditions: Bovine isolate
Description: as §1

[10] = tested on: Pasteurella hemolytica 23C; assay: MIC, conventional broth-dilution microtiter test; type: cell-based
Description: as §1

[11] = tested on: Mycoplasma gallisepticum 29C; assay: MIC, conventional broth-dilution microtiter test; type: cell-based; conditions: Mycoplasmoides gallisepticum
Description: as §1

[12] = tested on: Pasteurella multocida 40G; assay: MIC, conventional broth-dilution microtiter test; type: cell-based
Description: as §1

[13] = tested on: Pasteurella multocida 60A; assay: MIC, conventional broth-dilution microtiter test; type: cell-based; conditions: Avian isolate
Description: as §1

Streptococcus sp. 19F = assay: MIC, conventional broth-dilution microtiter test; type: cell-based
Description: as §1

[14] = tested on: Pasteurella hemolytica 22C; assay: MIC, conventional broth-dilution microtiter test; type: cell-based
Description: as §1

[15] = tested on: Staphylococcus aureus S13E; assay: MIC, standard agar-dilution assay; type: cell-based
Description: as §1

[16] = tested on: Streptococcus pneumoniae Park I; assay: MIC, standard agar-dilution assay; type: cell-based; conditions: Streptococcus pneumoniae Park I; agar dilution; read-out: MIC
Description: as §1

[17] = tested on: Staphylococcus aureus X400; assay: MIC, standard agar-dilution assay; type: cell-based; conditions: Staphylococcus aureus X400; Methicillin-resistant strain; agar dilution; read-out: MIC
Description: as §1

[18] = tested on: Staphylococcus epidermidis EPI1; assay: MIC, standard agar-dilution assay; type: cell-based; conditions: Staphylococcus epidermidis EPI1; agar dilution; read-out: MIC
Description: as §1

[19] = tested on: Pseudomonas aeruginosa X239; assay: MIC, standard agar-dilution assay; type: cell-based; conditions: Pseudomonas aeruginosa X239; agar dilution; read-out: MIC
Description: as §1

[20] = tested on: Streptococcus faecalis 2041; assay: MIC, standard agar-dilution assay; type: cell-based; conditions: Enterococcus faecalis; Streptococcus faecalis 2041; agar dilution; read-out: MIC
Description: as §1

[21] = tested on: Staphylococcus epidermidis 222; assay: MIC, standard agar-dilution assay; type: cell-based; conditions: Staphylococcus epidermidis 222; agar dilution; read-out: MIC
Description: as §1

[22] = tested on: Haemophilus influenzae 76; assay: MIC, standard agar-dilution assay; type: cell-based; conditions: Haemophilus influenzae 76; Ampicillin-resistant strain; agar dilution; read-out: MIC
Description: as §1

[23] = tested on: Staphylococcus aureus X1.1; assay: MIC, standard agar-dilution assay; type: cell-based; conditions: Staphylococcus aureus X1.1; agar dilution; read-out: MIC
Description: as §1

[24] = tested on: Klebsiella pneumoniae X68; assay: MIC, standard agar-dilution assay; type: cell-based
Description: as §1

[25] = tested on: Streptococcus pyogenes C203; assay: MIC, standard agar-dilution assay; type: cell-based; conditions: Streptococcus pyogenes C203; agar dilution; read-out: MIC
Description: as §1

[26] = tested on: Staphylococcus aureus V41; assay: MIC, standard agar-dilution assay; type: cell-based; conditions: Staphylococcus aureus V41; Penicillin-resistant strain; agar dilution; read-out: MIC
Description: as §1

[27] = tested on: Streptococcus faecalis X66; assay: MIC, standard agar-dilution assay; type: cell-based; conditions: Enterococcus faecalis; Streptococcus faecalis X66; agar dilution; read-out: MIC
Description: as §1

Escherichia coli EC14 = assay: MIC, standard agar-dilution assay; type: cell-based; conditions: Escherichia coli EC14; agar dilution; read-out: MIC
Description: as §1

[28] = tested on: Haemophilus influenzae C.L.; assay: MIC, standard agar-dilution assay; type: cell-based; conditions: Haemophilus influenzae C.L.; Ampicillin-sensitive strain; agar dilution; read-out: MIC
Description: as §1

Mycoplasma synoviae 40A = assay: MIC, conventional broth-dilution microtiter test; type: cell-based; conditions: Mycoplasmopsis synoviae
Description: as §1

Mycoplasma hyorhinis 29E = assay: MIC, conventional broth-dilution microtiter test; type: cell-based
Description: as §1

[29] = C203, mice, oral, read-out: ED50 Oral
[30] = C203, sc, mice, subcutaneous, read-out: ED50 Subcutaneous

Structure (SMILES)	ED50 [1, 29] [mg/kg]	ED50 [1, 30] [mg/kg]	MIC [2] [µg/mL]	MIC [3] [µg/mL]	MIC [4] [µg/mL]	MIC [5] [µg/mL]	MIC [6] [µg/mL]	MIC (Staphylococcus aureus) [µg/mL]	MIC [7] [µg/mL]	MIC [8] [µg/mL]	MIC [9] [µg/mL]	MIC [10] [µg/mL]	MIC [11] [µg/mL]	MIC [12] [µg/mL]	MIC [13] [µg/mL]	MIC (Streptococcus sp. 19F) [µg/mL]	MIC [14] [µg/mL]	MIC [15] [µg/mL]	MIC [16] [µg/mL]	MIC [17] [µg/mL]	other results
CCC1OC(=O)CC(O)C(C)C(OC2OC(C)C(O)C(N(C)C)C2O)C(CCOc2ccccc2)CC(C)C(=O)C=CC(C)=CC1COC1OC(C)C(OC(=O)CN2CCCC2)C(OC)C1OC (stereo not drawn) [Compound 13, 20-DH-20-O-Phenyl-4ʹʹ-O-(pyrrolidin-1-ylacetyl)-desmycosin]	24	10	50 (≈ 52 µM)	> 50	50 (≈ 52 µM)	> 50	50 (≈ 52 µM)	3.12 (≈ 3.25 µM)	25 (≈ 26 µM)	> 50	50 (≈ 52 µM)	50 (≈ 52 µM)	1.56 (≈ 1.62 µM)	25 (≈ 26 µM)	50 (≈ 52 µM)	6.25 (≈ 6.5 µM)	> 50	1 (≈ 1.04 µM)	2 (≈ 2.08 µM)	1 (≈ 1.04 µM)	MIC [18]: 1 µg/mL (≈ 1.04 µM); MIC [19]: > 128 µg/mL; MIC [20]: 16 µg/mL (≈ 16.6 µM); MIC [21]: 0.5 µg/mL (≈ 0.52 µM); MIC [22]: 32 µg/mL (≈ 33.3 µM); MIC [23]: 0.5 µg/mL (≈ 0.52 µM); MIC ([24]; Klebsiella pneumoniae, X68): > 128 µg/mL; MIC [25]: 1 µg/mL (≈ 1.04 µM); MIC [26]: 1 µg/mL (≈ 1.04 µM); MIC [27]: 16 µg/mL (≈ 16.6 µM); MIC (Escherichia coli EC14): > 128 µg/mL; MIC [28]: 32 µg/mL (≈ 33.3 µM)
CCC1OC(=O)CC(O)C(C)C(OC2OC(C)C(O)C(N(C)C)C2O)C(CCOc2ccccc2)CC(C)C(=O)C=CC(C)=CC1COC1OC(C)C(OC(C)=O)C(OC)C1OC (stereo not drawn) [Compound 2, 4ʹʹ-O-Acetyl-20-DH-20-O-phenyl-desmycosin]	10.9	4.46	50 (≈ 56 µM)	25 (≈ 28 µM)	> 50	> 50	50 (≈ 56 µM)	1.56 (≈ 1.75 µM)	25 (≈ 28 µM)	> 50	50 (≈ 56 µM)	50 (≈ 56 µM)	0.78 (≈ 0.874 µM)	50 (≈ 56 µM)	> 50	12.5 (≈ 14 µM)	> 50	2 (≈ 2.24 µM)	2 (≈ 2.24 µM)	2 (≈ 2.24 µM)	MIC (Mycoplasma synoviae 40A): 3.12 µg/mL (≈ 3.5 µM); MIC (Mycoplasma hyorhinis 29E): 50 µg/mL (≈ 56 µM); MIC [18]: 2 µg/mL (≈ 2.24 µM); MIC [19]: > 128 µg/mL; MIC [20]: 32 µg/mL (≈ 35.9 µM); MIC [21]: 1 µg/mL (≈ 1.12 µM); MIC [22]: 128 µg/mL (≈ 143 µM); MIC [23]: 2 µg/mL (≈ 2.24 µM); MIC ([24]; Klebsiella pneumoniae X68, agar dilution, read-out: MIC): > 128 µg/mL; MIC [25]: 1 µg/mL (≈ 1.12 µM); MIC [26]: 2 µg/mL (≈ 2.24 µM); MIC [27]: 16 µg/mL (≈ 17.9 µM); MIC (Escherichia coli EC14): > 128 µg/mL; MIC [28]: 128 µg/mL (≈ 143 µM)

Source: patent publication EP0262903A2, “New acyl derivatives of 20-modified tylosin and desmycosin compounds” (priority 1986, dated 1988)
